Test [1] concerns SW-620. Put plainly: Antitumor activity against human SW620 cells xenografted in athymic mouse model assessed as tumor free survival at 50 mg/kg measured after 17 to 94 days post tumor implantation by caliper method. It is filed as functional, organism-based. The settings on record: time 17-94 day. In general terms: In xenograft studies the graft and the host belong to different species.

For test [2], the system named is SW-620. Put plainly: Antitumor activity against human SW620 cells xenografted in athymic mouse model assessed as complete tumor regression at 50 mg/kg measured after 17 to 94 days post tumor implantation by caliper method. Type of test: functional, organism-based. The settings on record: time 17-94 day.
Test [3] concerns SW-620. Put plainly: Induction of cell cycle arrest in human SW620 cells assessed as increase in cdc25A level at 0.1 uM measured after 8 hrs by Western blot analysis. Type of test: functional, cell-based. (In general: In western blotting, separated proteins are transferred to a membrane and probed.)

Active and inactive are the calls of the source. The calls are words filed in the database; no cut-off is given here.

As to `CCc1c2c(nc3ccc(OC(=O)N4CCC(N5CCCCC5)CC4)cc13)-c1cc3c(c(=O)n1C2)COC(=O)[C@]3(O)CC`, the outcome in test [1] and in test [2] was inactive.

For `Nc1ccn([C@@H]2O[C@H](CO)[C@@H](O)C2(F)F)c(=O)n1`, in test [3], the result was inactive.
